This is an account of results in patent US7229985B2, “Amorphous substance of tricyclic triazolobenzazepine derivative” (Meiji Seika Kaisha, Ltd., priority 2001, dated 2007).

In general, solubility refers to the concentration that dissolves in the medium under given conditions. Low values mean little dissolved substance, high ones much dissolved substance.

Structures are written as SMILES. Values after ≈ are worked out from the molar mass of the structure shown.

The nature of data set [1]: Dissoluvability Test (1): solubility in water or 1 wt % aqueous methylcellulose solution at 37° C. It is filed as physicochemical. Here is the method: Water or a 1 wt % aqueous methylcellulose solution was provided as a test liquid, and solubility of various samples in the test liquid was examined. Each sample in an amount of about 100 mg in terms of compound A was added to 500 mL of the test liquid kept at 37° C., and the mixture was stirred with a paddle at 200 rpm. Sampling was carried out at predetermined time intervals, and the samples were filtered through a membrane filter (Sumplep LCR 13-LG, manufactured by Millipore Corporation). The concentration of compound A in each of the filtrates was analyzed by HPLC.
In Test Example 2, HPLC was carried out under the following measuring conditions.
Detector: Ultraviolet absorptiometer (measuring wavelength: 240 nm)
Column: Inertsil ODS 2 4.6×250 mm in which a stainless tube having an inner diameter of 4.6 mm and a length of 25 cm was packed with a 5-μm octadecylsilyl silica gel for liquid chromatography.
Column temp.: Around 40° C.
Mobile phase: 0.1 wt % ammonium acetate:methanol (45:55)

Data set [2] in a line: Absorption Test: oral administration, plasma compound B concentration. Type of data set: in vivo, beagles. As to the method: The sample produced in Comparative Example 1 or Example 1 was suspended in a 1 wt % aqueous methylcellulose solution. The suspension was administered orally to beagles (n=6) which had been subjected to fasting overnight. The difference in absorption among the samples was evaluated by comparing the area under the plasma drug concentration-time curve (AUC).
The plasma drug concentration in the collected blood was quantitatively determined according roughly to the following method.
Blood (about 0.7 mL) collected from the cephalic vein was centrifuged (4° C., about 9000×g, 10 min) in the presence of heparin to obtain plasma. Methanol (400 μL) and an internal standard substance solution (sodium salt of 7-methyl-4(5H),10-dioxo-2H-1,2,3-triazolo[4,5-c][1]benzazepine, 100 ng/mL, 100 μL) were added to the plasma (100 μL), and the mixture was stirred and centrifuged (4° C., about 9000×g, 10 min).
The supernatant was evaporated to dryness at room temperature under a nitrogen gas stream, and 150 μL of a mixed solution composed of a 10 mmol/L phosphate buffer (pH 7.0) and a methanol (8:2) was added to the residue for redissolution. The solution was then filtered by a centrifugal filter (Centricut Ultra-Mmini (KURABO INDUSTRIES LTD.), 4° C., about 9000×g, 10 min), and the filtrate was analyzed as a sample by HPLC. […]
Fluorescence detection wavelength: Ex 270 nm, Em 466 nm (GAIN=100, response=standard) […]

Data set [3] is described as follows: Solubility in glycerin, propylene glycol, Macrogol 400 and the like. Type of data set: physicochemical.
Data set [4] is described as follows: Oral absorption of pulverized crystal. It is filed as in vivo. As to conditions: orally administered to dogs. As to the method:
In addition, an experiment in which a pulverized crystal of crystalline compound A is prepared according to the description of Japanese Patent Laid-Open No. 185013/1987 disclosing a drug, which has been rendered easily absorbable by pulverizing was carried out. The treated drug is orally administered to experimental animals such as dogs.

Data set [5] is described as follows: Solubility in methylene chloride. Type of data set: physicochemical.
[6] abbreviates: test liquid 1 wt % aqueous methylcellulose solution, 37° C. (FIG. 3).
The mark [7] stands for this setting: test liquid water, 37° C., about 100 mg in 500 mL, paddle 200 rpm (FIG. 2), level reached.

In data set [1] (1 wt % aqueous methylcellulose solution, aqueous with cosolvent or surfactant or cyclodextrin, thermodynamic from solid, in a 1 wt % methylcellulose solution at 37° C.), `COc1cc2[nH]c(=O)c3nn(C(OC(=O)OC(C)C)C(C)C)nc3c(=O)c2cc1OC` (stereo not drawn) [Example 1, 2-(1-isopropoxycarbonyloxy-2-methylpropyl)-7,8-dimethoxy-4(5H), 10-dioxo-2H-1,2,3-triazolo[4,5-c][1]benzazepine] registered a solubility of 15 to 20 µg/mL (≈ 34.7 to 46.2 µM). For the same molecule, the “time for which concentration of dissolution was maintained” value in data set [1] (test liquid 1 wt % aqueous methylcellulose solution, 37° C.) worked out at 4 h. Moreover, the concentration of dissolution result in data set [1] (setting [6]) is recorded as “not less than 18 μg/mL”; in data set [1] (setting [7]), “about 5 μg/mL”. Besides, in data set [1] (test liquid water, 37° C., value to which the concentration then lowered (FIG. 2)), the “concentration of dissolution after lowering” value is on record as “about 3 μg/mL”. The “plasma compound B concentration over time versus crystalline compound of Comparative Example 1” value in data set [2] (beagles, dose one-eighth of the dose of the crystalline compound) was “much higher”. Also, the “plasma compound B concentration versus crystalline compound of Comparative Example 1” value in data set [2] (suspension in 1 wt % aqueous methylcellulose, fasted beagles (FIG. 5)) is “significantly higher”.

Regarding `COc1cc2[nH]c(=O)c3nn(C(OC(=O)OC(C)C)C(C)C)nc3c(=O)c2cc1OC` (stereo not drawn) [Comparative Example 1, 2-(1-Isopropoxycarbonyloxy-2-methylpropyl)-7,8-dimethoxy-4(5H), 10-dioxo-2H-1,2,3-triazolo[4,5-c][1]benzazepine], in data set [3], the “solubility in glycerin, propylene glycol, Macrogol 400 and the like” value is listed as “not on such a level that can make crystalline compound A pharmaceutically usable”. In data set [4], the improvement in absorption entry is recorded as “not more than expected”. Further, the “solubility in methylene chloride” value in data set [5] was “about 1 % by weight”. For the same molecule, the concentration of dissolution entry in data set [1] (setting [6]) and in data set [1] (setting [7]) was “not more than 1 μg/mL” in each case.
